Like-named read-outs stand apart in the source and are kept apart here.
What was measured:
Assay in all cases: Kinase inhibitory activity profiling of RI-962@10 µM (406 kinases, Eurofins)
Format in all cases: biochemical
[1] = biological target: panel of human kinases (kinase named in endpoint) (Homo sapiens, UniProt Q8IZX4); details: 10 µM; read-out: Activity (%), TAF1L(h)
How it was run: (§1)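 Radiometric filter-binding kinase assays: enzyme preincubated 15 min with compound in 8 mM MOPS pH 7.0, 0.2 mM EDTA, 250 μM peptide substrate, 10 mM magnesium acetate, 10 μM [γ-33P]-ATP. Reaction started with Mg/ATP, run 40 min at room temperature, stopped with phosphoric acid; 33P incorporation read by scintillation counting. Other kinases by similar protocols.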

[2] = biological target: panel of human kinases (kinase named in endpoint) (Homo sapiens, UniProt P42345); details: 10 µM
How it was run: as §1

[3] = biological target: panel of human kinases (kinase named in endpoint) (Homo sapiens, UniProt Q9HCP0); details: 10 µM; read-out: Activity (%), CK1γ1(h)
How it was run: as §1

[4] = biological target: panel of human kinases (kinase named in endpoint) (Homo sapiens, UniProt P15056); details: 10 µM; read-out: Activity (%), B-Raf(h)
How it was run: as §1

[5] = biological target: panel of human kinases (kinase named in endpoint) (Homo sapiens, UniProt Q52WX2); details: 10 µM; read-out: Activity (%), SBK1(h)
How it was run: as §1

[6] = biological target: panel of human kinases (kinase named in endpoint) (Homo sapiens, UniProt Q08345); details: 10 µM; read-out: Activity (%), DDR1(h)
How it was run: as §1

[7] = biological target: panel of human kinases (kinase named in endpoint) (Homo sapiens, UniProt Q13554); details: 10 µM; read-out: Activity (%), CaMKIIβ(h)
How it was run: as §1

[8] = biological target: panel of human kinases (kinase named in endpoint) (Homo sapiens, UniProt P08922); details: 10 µM; read-out: Activity (%), Ros(h)
How it was run: as §1

[9] = biological target: panel of human kinases (kinase named in endpoint) (Homo sapiens, UniProt P08581, D1228N); details: 10 µM; read-out: Activity (%), Met(D1246N)(h)
How it was run: as §1

[10] = biological target: panel of human kinases (kinase named in endpoint) (Homo sapiens, UniProt Q9Y6M4); details: 10 µM; read-out: Activity (%), CK1γ3(h)
How it was run: as §1

[11] = biological target: panel of human kinases (kinase named in endpoint) (Homo sapiens, UniProt P53778); details: 10 µM; read-out: Activity (%), SAPK3(h)
How it was run: as §1

[12] = biological target: panel of human kinases (kinase named in endpoint) (Homo sapiens, UniProt P51451); details: 10 µM; read-out: Activity (%), Blk(h)
How it was run: as §1

[13] = biological target: panel of human kinases (kinase named in endpoint) (Homo sapiens, UniProt Q16288); details: 10 µM; read-out: Activity (%), TrkC(h)
How it was run: as §1

[14] = biological target: panel of human kinases (kinase named in endpoint) (Homo sapiens, UniProt Q9P2K8); details: 10 µM; read-out: Activity (%), GCN2(h)
How it was run: as §1

[15] = biological target: panel of human kinases (kinase named in endpoint) (Homo sapiens, UniProt Q9H0K1); details: 10 µM; read-out: Activity (%), SIK2(h)
How it was run: as §1

[16] = biological target: panel of human kinases (kinase named in endpoint) (Homo sapiens, UniProt Q9Y2U5); details: 10 µM; read-out: Activity (%), MEKK2(h)
How it was run: as §1

[17] = biological target: panel of human kinases (kinase named in endpoint) (Homo sapiens, UniProt O75747); details: 10 µM; read-out: Activity (%), PI3KC2g(h)
How it was run: as §1

[18] = biological target: panel of human kinases (kinase named in endpoint) (Homo sapiens, UniProt Q13523); details: 10 µM; read-out: Activity (%), PRP4(h)
How it was run: as §1

[19] = biological target: panel of human kinases (kinase named in endpoint) (Homo sapiens, UniProt O00443); details: 10 µM; read-out: Activity (%), PI3KC2a(h)
How it was run: as §1

[20] = biological target: panel of human kinases (kinase named in endpoint) (Homo sapiens, UniProt P51617); details: 10 µM; read-out: Activity (%), IRAK1(h)
How it was run: as §1

[21] = biological target: panel of human kinases (kinase named in endpoint) (Homo sapiens, UniProt P17252); details: 10 µM; read-out: Activity (%), PKCα(h)
How it was run: as §1

[22] = biological target: panel of human kinases (kinase named in endpoint) (Homo sapiens, UniProt Q9H4A3); details: 10 µM; read-out: Activity (%), WNK1(h)
How it was run: as §1

[23] = biological target: panel of human kinases (kinase named in endpoint) (Homo sapiens, UniProt P08581, Y1230D); details: 10 µM; read-out: Activity (%), Met(Y1248D)(h)
How it was run: as §1

[24] = biological target: panel of human kinases (kinase named in endpoint) (Homo sapiens, UniProt P16234); details: 10 µM; read-out: Activity (%), PDGFRα(h)
How it was run: as §1

[25] = biological target: panel of human kinases (kinase named in endpoint) (Homo sapiens, UniProt P50750); details: 10 µM; read-out: Activity (%), CDK9/cyclin T1(h)
How it was run: as §1

Sequence of panel of human kinases (kinase named in endpoint) (Homo sapiens, UniProt Q9P2K8) (Q9P2K8 whole entry): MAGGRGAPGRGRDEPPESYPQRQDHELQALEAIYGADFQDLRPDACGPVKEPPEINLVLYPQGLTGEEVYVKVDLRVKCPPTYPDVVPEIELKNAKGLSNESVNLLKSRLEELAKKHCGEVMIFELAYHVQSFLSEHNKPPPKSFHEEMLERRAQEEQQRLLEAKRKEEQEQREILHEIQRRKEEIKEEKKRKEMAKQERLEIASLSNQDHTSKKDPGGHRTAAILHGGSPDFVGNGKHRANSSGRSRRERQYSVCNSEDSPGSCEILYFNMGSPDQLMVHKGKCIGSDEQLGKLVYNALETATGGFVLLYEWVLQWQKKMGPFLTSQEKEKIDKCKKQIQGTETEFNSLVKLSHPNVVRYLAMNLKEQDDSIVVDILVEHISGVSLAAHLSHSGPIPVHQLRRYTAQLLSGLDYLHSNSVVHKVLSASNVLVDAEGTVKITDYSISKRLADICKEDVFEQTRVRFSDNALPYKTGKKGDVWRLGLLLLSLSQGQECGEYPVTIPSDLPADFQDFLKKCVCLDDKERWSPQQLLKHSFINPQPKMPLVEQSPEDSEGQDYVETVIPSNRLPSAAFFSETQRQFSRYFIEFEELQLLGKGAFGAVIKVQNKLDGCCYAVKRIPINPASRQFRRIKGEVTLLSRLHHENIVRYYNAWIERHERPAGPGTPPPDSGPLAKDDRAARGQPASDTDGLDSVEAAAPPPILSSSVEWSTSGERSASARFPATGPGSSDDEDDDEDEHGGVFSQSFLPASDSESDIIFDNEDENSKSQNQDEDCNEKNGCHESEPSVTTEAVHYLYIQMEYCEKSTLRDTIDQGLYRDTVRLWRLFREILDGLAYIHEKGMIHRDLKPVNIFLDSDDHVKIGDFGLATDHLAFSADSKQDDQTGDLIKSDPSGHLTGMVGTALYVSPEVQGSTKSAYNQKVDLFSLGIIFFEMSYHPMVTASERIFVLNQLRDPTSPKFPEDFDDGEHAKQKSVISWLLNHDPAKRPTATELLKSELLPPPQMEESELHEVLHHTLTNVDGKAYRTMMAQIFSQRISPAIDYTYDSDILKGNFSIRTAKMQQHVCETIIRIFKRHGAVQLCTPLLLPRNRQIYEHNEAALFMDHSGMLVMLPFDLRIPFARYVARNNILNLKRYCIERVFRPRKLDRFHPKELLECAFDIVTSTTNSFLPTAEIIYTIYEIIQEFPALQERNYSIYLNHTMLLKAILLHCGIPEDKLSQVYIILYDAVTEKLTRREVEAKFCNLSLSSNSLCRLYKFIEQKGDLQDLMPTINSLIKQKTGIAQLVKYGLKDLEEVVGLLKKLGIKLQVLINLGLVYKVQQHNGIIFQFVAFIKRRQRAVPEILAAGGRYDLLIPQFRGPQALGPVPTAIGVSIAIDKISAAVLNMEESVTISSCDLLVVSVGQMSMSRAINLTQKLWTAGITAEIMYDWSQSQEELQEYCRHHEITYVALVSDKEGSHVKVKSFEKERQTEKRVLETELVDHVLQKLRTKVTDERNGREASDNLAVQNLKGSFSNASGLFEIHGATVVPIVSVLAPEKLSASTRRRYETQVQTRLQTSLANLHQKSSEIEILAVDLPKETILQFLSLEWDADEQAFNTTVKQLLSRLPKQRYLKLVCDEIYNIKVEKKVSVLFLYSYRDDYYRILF
Sequence of panel of human kinases (kinase named in endpoint) (Homo sapiens, UniProt Q08345) (Q08345 19-913): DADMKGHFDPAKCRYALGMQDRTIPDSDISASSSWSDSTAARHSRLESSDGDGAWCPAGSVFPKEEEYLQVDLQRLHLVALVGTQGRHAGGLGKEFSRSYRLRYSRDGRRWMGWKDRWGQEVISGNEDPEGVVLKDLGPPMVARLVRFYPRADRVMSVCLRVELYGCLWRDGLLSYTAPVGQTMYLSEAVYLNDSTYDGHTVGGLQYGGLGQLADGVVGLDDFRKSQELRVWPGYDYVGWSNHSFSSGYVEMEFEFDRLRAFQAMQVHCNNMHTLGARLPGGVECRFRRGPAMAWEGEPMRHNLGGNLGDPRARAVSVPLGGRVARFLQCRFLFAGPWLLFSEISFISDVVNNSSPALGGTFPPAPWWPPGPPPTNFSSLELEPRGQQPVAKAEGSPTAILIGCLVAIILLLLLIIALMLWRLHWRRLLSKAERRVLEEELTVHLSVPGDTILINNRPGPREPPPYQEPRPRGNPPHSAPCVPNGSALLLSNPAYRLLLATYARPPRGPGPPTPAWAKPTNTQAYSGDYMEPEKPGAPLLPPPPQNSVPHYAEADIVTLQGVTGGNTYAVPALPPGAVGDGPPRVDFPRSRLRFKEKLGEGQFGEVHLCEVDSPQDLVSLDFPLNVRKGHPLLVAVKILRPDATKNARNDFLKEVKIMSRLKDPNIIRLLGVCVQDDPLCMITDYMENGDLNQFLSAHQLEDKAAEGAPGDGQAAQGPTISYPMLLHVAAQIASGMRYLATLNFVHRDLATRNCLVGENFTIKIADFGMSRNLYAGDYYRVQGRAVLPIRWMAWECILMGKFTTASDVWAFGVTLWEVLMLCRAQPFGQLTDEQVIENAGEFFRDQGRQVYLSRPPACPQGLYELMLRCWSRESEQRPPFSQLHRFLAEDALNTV
Sequence of panel of human kinases (kinase named in endpoint) (Homo sapiens, UniProt Q9H4A3) (Q9H4A3 whole entry): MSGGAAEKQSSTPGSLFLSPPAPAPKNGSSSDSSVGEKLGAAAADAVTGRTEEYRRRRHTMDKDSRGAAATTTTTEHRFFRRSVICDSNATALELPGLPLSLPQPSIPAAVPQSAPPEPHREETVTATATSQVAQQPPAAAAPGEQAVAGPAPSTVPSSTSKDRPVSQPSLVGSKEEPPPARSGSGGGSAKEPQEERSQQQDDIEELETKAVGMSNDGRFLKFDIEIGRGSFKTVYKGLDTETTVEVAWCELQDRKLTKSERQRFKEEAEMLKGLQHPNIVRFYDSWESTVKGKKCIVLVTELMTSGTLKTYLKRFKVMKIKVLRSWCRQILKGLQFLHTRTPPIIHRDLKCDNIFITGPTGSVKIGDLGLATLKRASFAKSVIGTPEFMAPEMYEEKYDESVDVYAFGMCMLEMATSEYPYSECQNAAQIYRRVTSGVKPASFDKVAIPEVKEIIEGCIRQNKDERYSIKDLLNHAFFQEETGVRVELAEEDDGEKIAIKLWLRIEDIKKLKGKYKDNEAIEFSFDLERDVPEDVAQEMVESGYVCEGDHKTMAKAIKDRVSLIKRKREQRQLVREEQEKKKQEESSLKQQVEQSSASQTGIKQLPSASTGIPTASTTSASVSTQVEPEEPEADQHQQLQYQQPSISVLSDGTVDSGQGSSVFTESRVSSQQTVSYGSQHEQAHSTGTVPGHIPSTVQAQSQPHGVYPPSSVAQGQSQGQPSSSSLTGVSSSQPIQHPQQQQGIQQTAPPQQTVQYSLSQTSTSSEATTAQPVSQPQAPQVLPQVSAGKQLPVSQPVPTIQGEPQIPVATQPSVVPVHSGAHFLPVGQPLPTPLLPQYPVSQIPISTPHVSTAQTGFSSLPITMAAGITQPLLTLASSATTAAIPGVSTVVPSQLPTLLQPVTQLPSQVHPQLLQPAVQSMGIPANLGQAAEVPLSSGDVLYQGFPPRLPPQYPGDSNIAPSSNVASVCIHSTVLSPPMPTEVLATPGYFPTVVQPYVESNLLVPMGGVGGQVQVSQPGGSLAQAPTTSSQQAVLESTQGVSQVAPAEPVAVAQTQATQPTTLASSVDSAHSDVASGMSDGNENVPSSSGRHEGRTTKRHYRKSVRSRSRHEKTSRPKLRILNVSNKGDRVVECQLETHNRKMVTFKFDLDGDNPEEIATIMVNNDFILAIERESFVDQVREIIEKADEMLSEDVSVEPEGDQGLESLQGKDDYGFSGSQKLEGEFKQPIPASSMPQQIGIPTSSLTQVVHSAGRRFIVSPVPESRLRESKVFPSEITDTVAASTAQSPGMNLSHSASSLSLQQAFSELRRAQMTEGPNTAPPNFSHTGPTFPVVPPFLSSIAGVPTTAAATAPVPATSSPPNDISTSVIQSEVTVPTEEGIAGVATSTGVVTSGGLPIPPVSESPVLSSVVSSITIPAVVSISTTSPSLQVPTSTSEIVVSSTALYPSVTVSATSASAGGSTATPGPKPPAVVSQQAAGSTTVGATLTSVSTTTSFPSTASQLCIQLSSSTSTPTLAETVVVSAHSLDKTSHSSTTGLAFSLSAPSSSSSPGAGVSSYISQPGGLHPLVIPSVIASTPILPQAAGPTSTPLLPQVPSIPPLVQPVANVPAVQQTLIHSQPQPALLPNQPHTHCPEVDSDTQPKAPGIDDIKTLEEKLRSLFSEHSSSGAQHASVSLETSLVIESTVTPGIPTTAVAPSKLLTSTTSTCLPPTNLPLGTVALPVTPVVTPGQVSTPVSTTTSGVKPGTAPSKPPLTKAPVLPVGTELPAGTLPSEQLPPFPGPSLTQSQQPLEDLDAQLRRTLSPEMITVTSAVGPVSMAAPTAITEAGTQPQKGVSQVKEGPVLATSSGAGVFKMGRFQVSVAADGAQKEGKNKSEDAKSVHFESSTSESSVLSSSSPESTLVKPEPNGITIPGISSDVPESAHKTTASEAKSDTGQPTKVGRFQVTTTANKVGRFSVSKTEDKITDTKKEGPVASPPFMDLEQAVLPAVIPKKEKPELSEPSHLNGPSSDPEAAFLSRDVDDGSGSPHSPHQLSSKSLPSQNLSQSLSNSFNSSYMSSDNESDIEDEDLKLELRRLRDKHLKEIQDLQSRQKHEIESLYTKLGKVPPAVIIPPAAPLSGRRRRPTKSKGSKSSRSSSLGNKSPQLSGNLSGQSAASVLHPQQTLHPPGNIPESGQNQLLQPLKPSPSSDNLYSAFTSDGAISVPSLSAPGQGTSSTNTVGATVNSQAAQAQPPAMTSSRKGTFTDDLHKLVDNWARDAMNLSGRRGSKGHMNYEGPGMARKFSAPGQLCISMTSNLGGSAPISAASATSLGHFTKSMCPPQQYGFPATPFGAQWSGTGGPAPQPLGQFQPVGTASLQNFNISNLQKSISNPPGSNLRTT

## CC(C)C(=O)Nc1nc2cc(-c3ccc4c(c3)c(C(=O)NC(C)c3ccccc3)cn4C)ccn2n1 (centres unmarked) [RI-962]
[1]
  activity at 10 µM: 89%
[2]; read-out: Activity (%), mTOR(h)
  activity at 10 µM: 87%
[2]; read-out: Activity (%), mTOR/FKBP12(h)
  activity at 10 µM: 98%
[3]
  activity at 10 µM: 94%
[4]
  activity at 10 µM: 99%
[5]
  activity at 10 µM: 112%
[6]
  activity at 10 µM: 104%
[7]
  activity at 10 µM: 109%
[8]
  activity at 10 µM: 106%
[9]
  activity at 10 µM: 125%
[10]
  activity at 10 µM: 96%
[11]
  activity at 10 µM: 100%
[12]
  activity at 10 µM: 96%
[13]
  activity at 10 µM: 56%
[14]
  activity at 10 µM: 76%
[15]
  activity at 10 µM: 101%
[16]
  activity at 10 µM: 98%
[17]
  activity at 10 µM: 99%
[18]
  activity at 10 µM: 88%
[19]
  activity at 10 µM: 102%
[20]
  activity at 10 µM: 103%
[21]
  activity at 10 µM: 97%
[22]
  activity at 10 µM: 75%
[23]
  activity at 10 µM: 110%
[24]
  activity at 10 µM: 99%
[25]
  activity at 10 µM: 67%

— PMC9653409, “Generative deep learning enables the discovery of a potent and selective RIPK1 inhibitor” (Nature Communications, 2022)
